From PubChem BioAssay AID1963848 (Molecular Pharmacology Branch, DTP, NCI, 2024)

Tested on: 379773-124-R-J2-PDC spheroid viability
Assay: Anticancer human tumor 379773-124-R-J2-PDC patient-derived endometrial carcinoma cell line growth inhibition [POLQ]
Settings: spheroids with HUVEC and MSC; for IC50: curve of first compound; for viability, T/C: stronger effect = lower value
Outline: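 Three-cell-type spheroids modelling solid tumor plus stroma served as the readout system; POL inhibitors were tested individually and in combination, concentration ranges set by clinical Cmax where known.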

[1] = second compound 0.0316 µM, first compound 0.00316 µM
[2] = second compound 0.0316 µM, first compound 0.01 µM
[3] = second compound 0.0316 µM, first compound 0.0316 µM
[4] = second compound 0.0316 µM, first compound 0.1 µM
[5] = second compound 0.1 µM, first compound 0.00316 µM
[6] = second compound 0.1 µM, first compound 0.01 µM
[7] = second compound 0.1 µM, first compound 0.0316 µM
[8] = second compound 0.1 µM, first compound 0.1 µM
[9] = second compound 0.316 µM, first compound 0.00316 µM
[10] = second compound 0.316 µM, first compound 0.01 µM
[11] = second compound 0.316 µM, first compound 0.0316 µM
[12] = second compound 0.316 µM, first compound 0.1 µM
[13] = second compound 1 µM, first compound 0.00316 µM
[14] = second compound 1 µM, first compound 0.01 µM
[15] = second compound 1 µM, first compound 0.0316 µM
[16] = second compound 1 µM, first compound 0.1 µM
[17] = second compound 3.16 µM, first compound 0.00316 µM
[18] = second compound 3.16 µM, first compound 0.01 µM
[19] = second compound 3.16 µM, first compound 0.0316 µM
[20] = second compound 3.16 µM, first compound 0.1 µM
[21] = second compound 10 µM, first compound 0.00316 µM
[22] = second compound 10 µM, first compound 0.01 µM
[23] = second compound 10 µM, first compound 0.0316 µM
[24] = second compound 10 µM, first compound 0.1 µM
[25] = second compound 0.0316 µM, first compound 0.316 µM
[26] = second compound 0.0316 µM, first compound 1 µM
[27] = second compound 0.1 µM, first compound 0.316 µM
[28] = second compound 0.1 µM, first compound 1 µM
[29] = second compound 0.316 µM, first compound 0.316 µM
[30] = second compound 0.316 µM, first compound 1 µM
[31] = second compound 1 µM, first compound 0.316 µM
[32] = second compound 1 µM, first compound 1 µM
[33] = second compound 3.16 µM, first compound 0.316 µM
[34] = second compound 3.16 µM, first compound 1 µM
[35] = second compound 10 µM, first compound 0.316 µM
[36] = second compound 10 µM, first compound 1 µM
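Also: spheroids exposed to drugs for seven days before readout.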
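For viability, T/C in this document: percent viability relative to DMSO vehicle control taken as 100%.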

With `Cn1ncnc1[C@H]1c2n[nH]c(=O)c3cc(F)cc(c23)N[C@@H]1c1ccc(F)cc1` + Cc1cccc(N(C)C(=O)C2C(O)CCN2c2nc(C)cc(C(F)(F)F)c2C#N)c1 the IC50 (second compound 0.0316 µM) was greater than 100 nM, the IC50 (second compound 0.1 µM) was greater than 100 nM and the IC50 (second compound 0.316 µM) was greater than 100 nM. For the same compound, the IC50 (second compound 1 µM) was greater than 100 nM, the IC50 (second compound 3.16 µM) was 90.1 nM and the IC50 (second compound 10 µM) was greater than 100 nM. It also gave a viability, T/C (second compound 0.0316 µM, first compound 0.000316 µM) of 79.1%, a viability, T/C (second compound 0.0316 µM, first compound 0.001 µM) of 78.9% and a viability, T/C [1] of 74.5%. It also gave a viability, T/C [2] of 89.8%, a viability, T/C [3] of 67.8% and a viability, T/C [4] of 60.8%. The viability, T/C (second compound 0.1 µM, first compound 0.000316 µM) was 86.3%, the viability, T/C (second compound 0.1 µM, first compound 0.001 µM) was 77.2% and the viability, T/C [5] was 90.2%. It also gave a viability, T/C [6] of 82.8%, a viability, T/C [7] of 61.5% and a viability, T/C [8] of 55.6%. For the same compound, the viability, T/C (second compound 0.316 µM, first compound 0.000316 µM) was 85.7%, the viability, T/C (second compound 0.316 µM, first compound 0.001 µM) was 79.7% and the viability, T/C [9] was 74.2%. It also gave a viability, T/C [10] of 73.6%, a viability, T/C [11] of 82.8% and a viability, T/C [12] of 55.5%. The viability, T/C (second compound 1 µM, first compound 0.000316 µM) was 76.8%, the viability, T/C (second compound 1 µM, first compound 0.001 µM) was 87.3% and the viability, T/C [13] was 75.8%. The viability, T/C [14] was 76.7%, the viability, T/C [15] was 65.6% and the viability, T/C [16] was 60.6%. For the same compound, the viability, T/C (second compound 3.16 µM, first compound 0.000316 µM) was 74.9%, the viability, T/C (second compound 3.16 µM, first compound 0.001 µM) was 83.3% and the viability, T/C [17] was 67.6%. The viability, T/C [18] was 84.2%, the viability, T/C [19] was 70.2% and the viability, T/C [20] was 47.8%. It also gave a viability, T/C (second compound 10 µM, first compound 0.000316 µM) of 76.8%, a viability, T/C (second compound 10 µM, first compound 0.001 µM) of 78% and a viability, T/C [21] of 74.7%. For the same compound, the viability, T/C [22] was 70.5%, the viability, T/C [23] was 62.7% and the viability, T/C [24] was 54.1%.
Work on `Nc1ccn(C2OC(CO)C(O)C2(F)F)c(=O)n1` (stereo unspecified) + Nc1ccc(C#CCN(C(=O)Cc2ncc(C(F)(F)F)cc2C(F)(F)F)c2ccc(F)cc2)nn1 yielded an IC50 (second compound 0.0316 µM) of less than 31.6 nM, an IC50 (second compound 0.1 µM) of less than 31.6 nM and an IC50 (second compound 0.316 µM) of less than 31.6 nM. It also gave an IC50 (second compound 1 µM) of less than 31.6 nM, an IC50 (second compound 3.16 µM) of 42 nM and an IC50 (second compound 10 µM) of 71.9 nM. For the same compound, the viability, T/C [3] was 15.1%, the viability, T/C [4] was 10.6% and the viability, T/C [25] was 11.7%. It also gave a viability, T/C [26] of 13.6%, a viability, T/C (second compound 0.0316 µM, first compound 3.16 µM) of 12.6% and a viability, T/C (second compound 0.0316 µM, first compound 10 µM) of 9.91%. The viability, T/C [7] was 19.5%, the viability, T/C [8] was 11.3% and the viability, T/C [27] was 11.3%. For the same compound, the viability, T/C [28] was 11.7%, the viability, T/C (second compound 0.1 µM, first compound 3.16 µM) was 12.6% and the viability, T/C (second compound 0.1 µM, first compound 10 µM) was 11.1%. The viability, T/C [11] was 24%, the viability, T/C [12] was 12.2% and the viability, T/C [29] was 10.3%. The viability, T/C [30] was 13.1%, the viability, T/C (second compound 0.316 µM, first compound 3.16 µM) was 12% and the viability, T/C (second compound 0.316 µM, first compound 10 µM) was 12%. For the same compound, the viability, T/C [15] was 36.3%, the viability, T/C [16] was 11.9% and the viability, T/C [31] was 10.3%. For the same compound, the viability, T/C [32] was 9.8%, the viability, T/C (second compound 1 µM, first compound 3.16 µM) was 10.8% and the viability, T/C (second compound 1 µM, first compound 10 µM) was 12.4%. The viability, T/C [19] was 61.2%, the viability, T/C [20] was 15.9% and the viability, T/C [33] was 10.5%. It also gave a viability, T/C [34] of 10.6%, a viability, T/C (second compound 3.16 µM, first compound 3.16 µM) of 9.92% and a viability, T/C (second compound 3.16 µM, first compound 10 µM) of 10.9%. The viability, T/C [23] was 96.1%, the viability, T/C [24] was 31.3% and the viability, T/C [35] was 12.7%. For the same compound, the viability, T/C [36] was 9.85%, the viability, T/C (second compound 10 µM, first compound 3.16 µM) was 10.6% and the viability, T/C (second compound 10 µM, first compound 10 µM) was 9.44%.
`COc1cccc(OCCCN)c1-c1cc(Nc2cnc(C#N)cn2)n[nH]1` + Nc1ccc(C#CCN(C(=O)Cc2ncc(C(F)(F)F)cc2C(F)(F)F)c2ccc(F)cc2)nn1 gave an IC50 (second compound 0.0316 µM) of 6.21 nM, an IC50 (second compound 0.1 µM) of 6.12 nM and an IC50 (second compound 0.316 µM) of 6.36 nM. For the same compound, the IC50 (second compound 1 µM) was 6.47 nM, the IC50 (second compound 3.16 µM) was 6.4 nM and the IC50 (second compound 10 µM) was 6.36 nM. It also gave a viability, T/C [1] of 86.5%, a viability, T/C [2] of 24.3% and a viability, T/C [3] of 3.65%. It also gave a viability, T/C [4] of 2.95%, a viability, T/C [25] of 2.97% and a viability, T/C [26] of 1.66%. For the same compound, the viability, T/C [5] was 80.2%, the viability, T/C [6] was 27.6% and the viability, T/C [7] was 3.76%. The viability, T/C [8] was 2.65%, the viability, T/C [27] was 2.25% and the viability, T/C [28] was 1.2%. It also gave a viability, T/C [9] of 95.2%, a viability, T/C [10] of 20.7% and a viability, T/C [11] of 3.16%. The viability, T/C [12] was 2.72%, the viability, T/C [29] was 3.55% and the viability, T/C [30] was 1.23%. It also gave a viability, T/C [13] of 98.5%, a viability, T/C [14] of 20.5% and a viability, T/C [15] of 3.32%. The viability, T/C [16] was 2.87%, the viability, T/C [31] was 4.02% and the viability, T/C [32] was 1.67%. For the same compound, the viability, T/C [17] was 102%, the viability, T/C [18] was 16.9% and the viability, T/C [19] was 3.53%. It also gave a viability, T/C [20] of 1.93%, a viability, T/C [33] of 2.04% and a viability, T/C [34] of 1.29%. For the same compound, the viability, T/C [21] was 93.2%, the viability, T/C [22] was 22% and the viability, T/C [23] was 2.53%. For the same compound, the viability, T/C [24] was 2.36%, the viability, T/C [35] was 2.24% and the viability, T/C [36] was 1.49%.
